The record followed here is paper PMC12320299 (Chemical Science, 2025).

Each structure is given as a SMILES string.

The IC50 is the concentration needed to halve the response being measured. Lower therefore signals greater potency.

For test [1], the system named is SW480 cancer cells. Briefly: Cell cycle analysis by flow cytometry (propidium iodide). In kind it is cell-based, human. Conditions: 24 h; 1a 12.5 to 50 nM; gemcitabine 10 nM. In general terms: In flow cytometry, cells or beads pass a laser one at a time.
Test [2] deals with T1, ATP-dependent RNA helicase DDX3X (Homo sapiens, UniProt O00571).
T1 construct: endogenous in cells; host or cells: SW480 whole cell lysate
Description: Peptide centric local stability assay in SW480 whole cell lysate. The format is binding. Conditions: 1 μM. The source says: The method relies on a limited-proteolysis strategy, where ligand-binding on target proteins is expected to increase the stability of the proteins against proteolytic digestion. This specifically enables the identification of target proteins of small molecules. […] Being a ruthenium(arene) derivative, plecstatin-1 was used to assess potential non-specific interactors of the ruthenium(cymene) fragment. […] However, among the selective interaction partners, we found specific peptides of ATP-dependent RNA helicase DDX3X, tubulin alpha-1A (TUBA1A) and albumin (ALB). Several peptides of TUBA1A and ALB were also found to be stabilized by plecstatin-1 indicating low specificity.
Peptide Local Stability Assay
SW480 cancer cells were cultivated in complete medium as above in two T75 adherent flasks.
The protein extraction was performed on ice. The flasks were washed twice with PBS (1×, 5 mL) and the wash solution was completely removed. Then, PBS (1×, 2mL, containing 1% PPC) was added in each T75 flak. The cells were scraped off and the cell suspension was transferred to 15 mL falcon tubes. […]
The clear supernatant was pooled in a 5 mL Eppendorf tube and kept on ice. The protein concentration was determined using a BCA assay as described above and adjusted to 1 µg/µL using PBS (1×, containing 1% PPC). […]

Test [3] relates to murine CT26 colon carcinoma cells. Description: MTT viability assay, CT26, 96 h. The format is cell-based. Conditions: wildtype TP53. The protocol: (§1) removed and 100 µL DMSO was added to dissolve the formazan crystals. Photometric quantification was performed at 570 nm with a Multiskan Go 1510 photometer (Thermo Fisher […]
(§2) The absorbances were blank corrected and converted to relative proliferation. The IC50 values (concentration of 50% growth inhibition) were obtained using a sigmoidal fit of the experimental data and calculated as the mean ± standard deviation of at least three independent experiments, each in at least triplicates.
(§3) HCT116, HCT116 p53KO (each 2.000 cells/well) and CT-26 cells (500 cells/well) were seeded in 100 µL/well into flat-bottom 96-well plates (Starlab) and incubated at 37 °C for 96 h in a humidified incubator (Binder CB210) at 5% CO2. The test compound was dissolved in DMSO, serially diluted in the appropriate cell culture medium (see section above) to final DMSO concentrations of ≤0.5% v/v and 100 µL aliquots added to wells in triplicates. […] Optical densities were measured with a microplate reader (ELx808, Biotek) at a wavelength of 550 nm (and a reference wavelength of 690 nm) and blank corrected. […]
(§4) (each 3.000 cells/well) were seeded in 100 µL/well into flat-bottom 96-well plates (Starlab) and incubated at 37 °C for 24 h in a humidified incubator (Binder CB210) at 5% CO2. […] After 24 h of treatment, plates were measured by MTT assay as described above. […]
In general terms: Tetrazolium assays rely on reduction of a dye to a coloured formazan, in cell work by metabolically active cells.

Test [4] relates to HCT116 TP53 wild-type (TP53WT). Briefly: MTT viability assay, HCT116 TP53 wild-type, 96 h. In kind it is cell-based, human. On the procedure:
as §1, §2, §3, §4

T1 sequence (O00571 whole entry): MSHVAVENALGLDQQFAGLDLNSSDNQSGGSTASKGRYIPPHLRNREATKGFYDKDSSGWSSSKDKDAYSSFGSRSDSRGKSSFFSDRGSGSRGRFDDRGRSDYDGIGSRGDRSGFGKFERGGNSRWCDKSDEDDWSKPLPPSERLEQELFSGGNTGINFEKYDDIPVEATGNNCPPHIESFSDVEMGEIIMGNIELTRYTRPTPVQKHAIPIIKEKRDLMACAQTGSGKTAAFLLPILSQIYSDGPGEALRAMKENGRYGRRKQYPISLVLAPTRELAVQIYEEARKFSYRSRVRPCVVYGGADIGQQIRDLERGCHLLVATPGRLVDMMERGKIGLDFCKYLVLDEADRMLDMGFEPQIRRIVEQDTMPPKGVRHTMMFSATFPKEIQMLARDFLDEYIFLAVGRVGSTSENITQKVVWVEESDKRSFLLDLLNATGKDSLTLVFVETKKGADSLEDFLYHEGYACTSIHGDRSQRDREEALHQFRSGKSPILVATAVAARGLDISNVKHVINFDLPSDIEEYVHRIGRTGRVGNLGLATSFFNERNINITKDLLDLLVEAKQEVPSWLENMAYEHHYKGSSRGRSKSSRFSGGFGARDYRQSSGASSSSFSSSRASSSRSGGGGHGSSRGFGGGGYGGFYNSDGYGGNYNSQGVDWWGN

For the molecule `CCC1=C2[O][Ru][O]C2(n2cccn2)c2ccccc2C1=O.Cc1ccc(C(C)C)cc1` (stereo not shown) [Compound 1a, [(3-ethyl-4-oxo-(pyrazolyl)-dihydronaphthalene)(cymene)ruthenium(II)]], the cell cycle distribution entry in test [1] was “dose-dependent increase in the S and G2/M phases”. Moreover, the “direct interaction with DDX3X” value in test [2] is “most probable direct binding partner”. Besides, the figures for the IC50 in test [3] and in test [4] were 800 ± 150 nM and 130 ± 20 nM, respectively.
